# Test results reported in patent US20200326333A1, “DIAGNOSIS AND TREATMENT OF AUTOIMMUNE DISEASES” (OP-T LLC, priority 2019, published 2020).
# Columns and labels:
# [1] = system: integrins from CD4lo cells (CD4loCD40+; Th40); assay: KGYY15 immunoprecipitation with western blot, CD4lo cells; type: binding, mouse
# Text: (§1) FIG. 10A, FIG. 10B, FIG. 10C-1, FIG. 10C-2, FIG. 10D, FIG. 10E, FIG. 10F, FIG. 10G, FIG. 10H-1, FIG. 10H-2, FIG. 10I, FIG. 10J-1, FIG. 10J-2, and FIG. 10J-3 provide blots, tables, graphs, charts, and plots related to additional biomarkers, receptors, and peptides that may bind thereto. The blots of FIG. 10A, FIG. 10B, FIGS. 10C-1, 10C-2 and FIG. 10D provide immunoprecipitation results of western blots. […] FIG. 10E provides a table of when KGYY15 eluates from mouse PBMR, MHCII+, CD4hi or CD4lo cells in protein sequencing, for integrins and proteins listed in FIG. 10E. FIG. 10F provides results of a western blot when 3 different CD40 antibodies were used in immunoprecipitations on cells that had been incubated with mKGYY15-biotin prior to lysis. FIG. 10H-1 and FIG. 10H-2, FIG. 10I, and FIG. 10J-1, FIG. 10J-2, and FIG. 10J-3 provide additional binding tests and studies that were done regarding peptides of KGYY-4, KGYY-6, and KGYY6-Val.
# [2] = system: integrins from CD4hi cells (CD4+CD40−); assay: KGYY15 immunoprecipitation with western blot, CD4hi cells; type: binding, mouse; conditions: αL more prominently from autoimmune NOD and αD from control Balb/c cells
# Text: as §1
sequence,measurement,setting,value
"VLQWAKKGYYTMKSN [KGYY15, 15-mer CD154-derived peptide around the KGYY core]",β3 immunoprecipitation,[1]; cell population not stated,not β3
same,integrins immunoprecipitated from CD4lo cells,[1]; more prominently from autoimmune NOD cells than from control Balb/c cells,"immunoprecipitated primarily αM, αD and β2"
same,CD11a immunoprecipitation,[1]; several differentially glycosylated (presumably) bands,immunoprecipitated but only from NOD CD4lo cells
same,integrins immunoprecipitated from CD4hi cells,[2],"immunoprecipitated primarily αL, αD and β2"
